Measured values from US8541588B2, “Sulfonamide derivatives” (Pfizer Limited, priority 2009, dated 2013).
pIC50: −log10 of the molar value.

Target: T1, Nav1.7 (or SCN9A) channel; HEK cells stably transfected with hSCN9A (Homo sapiens, UniProt Q15858)
T1 construct: expressed in transfected cells
Test: Nav1.7 block, PatchXpress 7000 automated whole-cell voltage clamp, estimated IC50 (EIC50)
Format: cell-based
Settings: estimated IC50; hSCN9A HEK cells, PatchXpress platform; Examples 283-814

T1 sequence (Q15858 whole entry): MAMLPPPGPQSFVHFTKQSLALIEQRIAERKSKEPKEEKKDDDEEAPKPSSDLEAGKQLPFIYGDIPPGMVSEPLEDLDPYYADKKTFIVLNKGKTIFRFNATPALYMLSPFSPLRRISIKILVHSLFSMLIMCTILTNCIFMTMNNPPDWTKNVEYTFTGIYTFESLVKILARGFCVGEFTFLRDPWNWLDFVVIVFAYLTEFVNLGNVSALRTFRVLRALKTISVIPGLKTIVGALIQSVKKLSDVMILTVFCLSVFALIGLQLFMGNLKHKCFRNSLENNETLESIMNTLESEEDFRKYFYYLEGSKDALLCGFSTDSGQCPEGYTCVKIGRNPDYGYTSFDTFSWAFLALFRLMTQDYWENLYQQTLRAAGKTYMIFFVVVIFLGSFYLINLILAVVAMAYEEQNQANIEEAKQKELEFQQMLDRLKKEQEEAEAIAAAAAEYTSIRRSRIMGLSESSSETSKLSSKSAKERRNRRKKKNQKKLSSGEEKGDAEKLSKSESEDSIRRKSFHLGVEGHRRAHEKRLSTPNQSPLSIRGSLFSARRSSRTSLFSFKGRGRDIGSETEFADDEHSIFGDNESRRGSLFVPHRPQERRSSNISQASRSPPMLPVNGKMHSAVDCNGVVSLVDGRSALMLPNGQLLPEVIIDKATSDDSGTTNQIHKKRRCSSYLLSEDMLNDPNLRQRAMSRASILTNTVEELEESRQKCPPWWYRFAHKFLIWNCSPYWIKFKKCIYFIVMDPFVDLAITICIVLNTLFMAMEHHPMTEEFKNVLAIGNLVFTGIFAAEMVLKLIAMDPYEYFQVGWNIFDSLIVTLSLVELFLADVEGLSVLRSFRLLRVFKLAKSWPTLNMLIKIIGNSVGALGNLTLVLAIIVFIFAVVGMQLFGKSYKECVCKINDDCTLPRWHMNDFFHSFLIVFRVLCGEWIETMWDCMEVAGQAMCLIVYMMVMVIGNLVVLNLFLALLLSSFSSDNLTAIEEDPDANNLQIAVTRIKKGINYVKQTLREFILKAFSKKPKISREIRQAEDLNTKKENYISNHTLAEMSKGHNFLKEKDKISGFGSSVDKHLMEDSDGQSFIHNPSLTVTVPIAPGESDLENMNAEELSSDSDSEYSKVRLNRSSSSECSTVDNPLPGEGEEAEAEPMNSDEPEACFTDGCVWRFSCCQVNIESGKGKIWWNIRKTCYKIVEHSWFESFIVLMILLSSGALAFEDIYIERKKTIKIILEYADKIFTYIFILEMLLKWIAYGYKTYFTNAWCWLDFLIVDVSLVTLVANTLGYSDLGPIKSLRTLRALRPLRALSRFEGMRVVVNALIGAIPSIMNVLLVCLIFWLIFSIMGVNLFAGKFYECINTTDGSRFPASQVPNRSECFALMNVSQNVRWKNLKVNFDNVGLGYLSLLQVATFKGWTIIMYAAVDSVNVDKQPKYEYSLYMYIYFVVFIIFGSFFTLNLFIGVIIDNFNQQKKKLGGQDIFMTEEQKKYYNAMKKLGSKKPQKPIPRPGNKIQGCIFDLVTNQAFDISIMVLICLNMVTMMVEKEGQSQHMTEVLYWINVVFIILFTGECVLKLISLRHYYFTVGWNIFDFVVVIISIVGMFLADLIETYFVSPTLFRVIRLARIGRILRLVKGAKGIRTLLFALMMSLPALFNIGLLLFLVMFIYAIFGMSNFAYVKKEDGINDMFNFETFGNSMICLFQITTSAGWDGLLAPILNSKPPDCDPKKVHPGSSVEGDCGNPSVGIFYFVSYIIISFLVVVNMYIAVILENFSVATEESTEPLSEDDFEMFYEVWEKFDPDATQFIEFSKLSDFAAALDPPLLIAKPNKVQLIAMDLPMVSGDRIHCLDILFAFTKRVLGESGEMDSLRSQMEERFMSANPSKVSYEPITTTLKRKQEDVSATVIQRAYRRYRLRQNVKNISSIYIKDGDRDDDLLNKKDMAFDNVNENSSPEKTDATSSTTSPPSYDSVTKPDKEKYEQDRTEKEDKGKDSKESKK

N#Cc1cc(S(=O)(=O)Nc2cscn2)ccc1Oc1ccc(Cl)cc1-c1cccc(N)n1 [Example 766, 4-[2-(6-aminopyridin-2-yl)-4-chlorophenoxy]-3-cyano-N-1,3-thiazol-4-ylbenzenesulfonamide]
pIC50: 6.30

N#Cc1cc(S(=O)(=O)Nc2cscn2)ccc1Oc1ccc(Cl)cc1-c1cn[nH]c1 [Example 767, 4-[4-chloro-2-(1H-pyrazol-4-yl)phenoxy]-3-cyano-N-1,3-thiazol-4-ylbenzenesulfonamide]
pIC50: 6.62

N#Cc1cc(S(=O)(=O)Nc2cscn2)ccc1Oc1cccc(Cc2cc[nH]n2)c1 [Example 768, 3-cyano-4-[3-(1H-pyrazol-3-ylmethyl)phenoxy]-N-1,3-thiazol-4-ylbenzenesulfonamide]
pIC50: 4.96

CC(C)(C)n1ccc(Cc2cccc(Oc3ccc(S(=O)(=O)Nc4cscn4)cc3C#N)c2)n1 [Example 769, 4-{3-[(1-tert-butyl-1H-pyrazol-3-yl)methyl]phenoxy}-3-cyano-N-1,3-thiazol-4-ylbenzenesulfonamide]
pIC50: 5.06

N#Cc1cc(S(=O)(=O)Nc2ccc(C(F)(F)F)cn2)ccc1Oc1ccccc1-c1ccccc1 [Example 770, 4-(biphenyl-2-yloxy)-3-cyano-N-[5-(trifluoromethyl)pyridin-2-yl]benzenesulfonamide]
pIC50: 4.62

N#Cc1ccc(Oc2cc(F)c(S(=O)(=O)Nc3ncc(Cl)s3)cc2F)c(-c2cn[nH]c2)c1 [Example 771, N-(5-chloro-1,3-thiazol-2-yl)-4-[4-cyano-2-(1H-pyrazol-4-yl)phenoxy]-2,5-difluorobenzenesulfonamide]
pIC50: 6.62

Cn1nccc1-c1cc(Cl)ccc1Oc1ccc(S(=O)(=O)Nc2ccc(C(F)(F)F)cn2)cc1C#N [Example 772, 4-[4-chloro-2-(1-methyl-1H-pyrazol-5-yl)phenoxy]-3-cyano-N-[5-(trifluoromethyl)pyridin-2-yl]benzenesulfonamide]
pIC50: 4.51

O=S(=O)(Nc1ncns1)c1cc(Cl)c(Oc2cc(F)ccc2-c2ccn[nH]2)cc1F [Example 773, 5-chloro-2-fluoro-4-[5-fluoro-2-(1H-pyrazol-5-yl)phenoxy]-N-1,2,4-thiadiazol-5-ylbenzenesulfonamide]
pIC50: 8.16

N#Cc1cc(S(=O)(=O)Nc2nccs2)ccc1Oc1ccc(-n2cc(F)cn2)cc1 [Example 774, 3-cyano-4-[4-(4-fluoro-1H-pyrazol-1-yl)phenoxy]-N-1,3-thiazol-2-ylbenzenesulfonamide]
IC50: >1000 nM

CC(C)(C)n1nccc1-c1cc(Cl)ccc1Oc1ccc(S(=O)(=O)Nc2ncns2)cc1C#N [Example 775, 4-[2-(1-tert-butyl-1H-pyrazol-5-yl)-4-chlorophenoxy]-3-cyano-N-1,2,4-thiadiazol-5-ylbenzenesulfonamide]
pIC50: 7.06

Cc1nnc(NS(=O)(=O)c2ccc(Oc3ccc(Cl)cc3-c3ccnn3C)c(F)c2)s1 [Example 776, 4-[4-chloro-2-(1-methyl-1H-pyrazol-5-yl)phenoxy]-3-fluoro-N-(5-methyl-1,3,4-thiadiazol-2-yl)benzenesulfonamide]
pIC50: 5.60

O=S(=O)(Nc1cscn1)c1cc(Cl)c(Oc2ccc(Cl)cc2-c2cnn[nH]2)cc1F [Example 777, 5-chloro-4-[4-chloro-2-(1H-1,2,3-triazol-5-yl)phenoxy]-2-fluoro-N--thiazol-4-ylbenzenesulfonamide]
pIC50: 5.89

N#Cc1cc(S(=O)(=O)Nc2nccs2)ccc1Oc1cccc(-c2ccccc2)c1 [Example 778, 4-(biphenyl-3-yloxy)-3-cyano-N-1,3-thiazol-2-ylbenzenesulfonamide]
pIC50: 6.33

Cn1nc(C(F)(F)F)cc1-c1ccc(F)c(Oc2ccc(S(=O)(=O)Nc3nccs3)cc2C#N)c1 [Example 779, 3-cyano-4-{2-fluoro-5-[1-methyl-3-(trifluoromethyl)-1H-pyrazol-5-yl]phenoxy}-N-1,3-thiazol-2-ylbenzenesulfonamide]
pIC50: 6.68
